Converted amounts (≈) assume the structure as drawn.
Tests used:
Type in all cases: functional
Mycobacterium avium [1] = test: Antimycobacterial activity against Mycobacterium avium CNCTC My 330/80 after 21 days by micromethod; conditions: CNCTC My 330/80, 504 h
Mycobacterium kansasii [2] = test: Antimycobacterial activity against Mycobacterium kansasii isolate 6509/96 after 14 days by micromethod; conditions: isolate 6509/96, 336 h
Mycobacterium avium [3] = test: Antimycobacterial activity against Mycobacterium avium CNCTC My 330/80 after 14 days by micromethod; conditions: CNCTC My 330/80, 336 h
Mycobacterium kansasii [4] = test: Antimycobacterial activity against Mycobacterium kansasii CNCTC My 235/80 after 14 days by micromethod; conditions: CNCTC My 235/80, 336 h
[5] = test system: Mycobacterium tuberculosis; test: Antimycobacterial activity against Mycobacterium tuberculosis H37Rv CNCTC My 331/88 after 21 days by micromethod; conditions: H37Rv CNCTC My 331/88, 504 h
Mycobacterium kansasii [6] = test: Antimycobacterial activity against Mycobacterium kansasii isolate 6509/96 after 21 days by micromethod; conditions: isolate 6509/96, 504 h
Mycobacterium kansasii [7] = test: Antimycobacterial activity against Mycobacterium kansasii isolate 6509/96 after 7 days by micromethod; conditions: isolate 6509/96, 168 h
[8] = test system: Mycobacterium tuberculosis; test: Antimycobacterial activity against Mycobacterium tuberculosis H37Rv CNCTC My 331/88 after 14 days by micromethod; conditions: H37Rv CNCTC My 331/88, 336 h
Mycobacterium kansasii [9] = test: Antimycobacterial activity against Mycobacterium kansasii CNCTC My 235/80 after 7 days by micromethod; conditions: CNCTC My 235/80, 168 h
Mycobacterium kansasii [10] = test: Antimycobacterial activity against Mycobacterium kansasii CNCTC My 235/80 after 21 days by micromethod; conditions: CNCTC My 235/80, 504 h

Row | SMILES | MIC99 (Mycobacterium avium [1]) | MIC99 (Mycobacterium kansasii [2]) | MIC99 (Mycobacterium avium [3]) | MIC99 (Mycobacterium kansasii [4]) | MIC99 [5] | MIC99 (Mycobacterium kansasii [6]) | MIC99 (Mycobacterium kansasii [7]) | MIC99 [8] | MIC99 (Mycobacterium kansasii [9]) | MIC99 (Mycobacterium kansasii [10])
1 | O=[N+]([O-])c1cc(-c2nnn(CCCCSc3nnnn3-c3ccc(Br)cc3)n2)cc([N+](=O)[O-])c1 | 1 µM (≈ 0.547 µg/mL) | 1 µM (≈ 0.547 µg/mL) | 1 µM (≈ 0.547 µg/mL) | 1 µM (≈ 0.547 µg/mL) | 0.5 µM (≈ 0.274 µg/mL) | 2 µM (≈ 1.09 µg/mL) | 1 µM (≈ 0.547 µg/mL) | 0.5 µM (≈ 0.274 µg/mL) | 0.5 µM (≈ 0.274 µg/mL) | 1 µM (≈ 0.547 µg/mL)
2 | O=[N+]([O-])c1cc(-c2nnn(CCCSc3nnnn3-c3ccc(Cl)c(Cl)c3)n2)cc([N+](=O)[O-])c1 | 8 µM (≈ 4.19 µg/mL) | 0.5 µM (≈ 0.262 µg/mL) | 4 µM (≈ 2.09 µg/mL) | 0.5 µM (≈ 0.262 µg/mL) | 0.25 µM (≈ 0.131 µg/mL) | 0.5 µM (≈ 0.262 µg/mL) | 0.25 µM (≈ 0.131 µg/mL) | 0.25 µM (≈ 0.131 µg/mL) | 0.25 µM (≈ 0.131 µg/mL) | 0.5 µM (≈ 0.262 µg/mL)
3 | COc1ccc(-n2nnnc2Sc2cc([N+](=O)[O-])cc([N+](=O)[O-])c2)cc1 | 16 µM (≈ 5.99 µg/mL) | 4 µM (≈ 1.5 µg/mL) | 8 µM (≈ 2.99 µg/mL) | 4 µM (≈ 1.5 µg/mL) | 1 µM (≈ 0.374 µg/mL) | 4 µM (≈ 1.5 µg/mL) | 2 µM (≈ 0.749 µg/mL) | 1 µM (≈ 0.374 µg/mL) | 2 µM (≈ 0.749 µg/mL) | 4 µM (≈ 1.5 µg/mL)
4 | O=[N+]([O-])c1cc(-c2nnn(Cc3c(F)cccc3Cl)n2)cc([N+](=O)[O-])c1 | 8 µM (≈ 3.03 µg/mL) | 1 µM (≈ 0.379 µg/mL) | 4 µM (≈ 1.51 µg/mL) | 1 µM (≈ 0.379 µg/mL) | 0.5 µM (≈ 0.189 µg/mL) | 1 µM (≈ 0.379 µg/mL) | 0.5 µM (≈ 0.189 µg/mL) | 0.5 µM (≈ 0.189 µg/mL) | 0.5 µM (≈ 0.189 µg/mL) | 1 µM (≈ 0.379 µg/mL)
5 | O=[N+]([O-])c1cc(-c2nnn(CCCSc3nnnn3-c3ccc(Br)cc3)n2)cc([N+](=O)[O-])c1 | 2 µM (≈ 1.07 µg/mL) | 1 µM (≈ 0.533 µg/mL) | 1 µM (≈ 0.533 µg/mL) | 1 µM (≈ 0.533 µg/mL) | 0.5 µM (≈ 0.267 µg/mL) | 1 µM (≈ 0.533 µg/mL) | 0.5 µM (≈ 0.267 µg/mL) | 0.5 µM (≈ 0.267 µg/mL) | 0.5 µM (≈ 0.267 µg/mL) | 2 µM (≈ 1.07 µg/mL)
6 | COc1ccccc1-n1nnnc1Sc1cc([N+](=O)[O-])cc([N+](=O)[O-])c1 | 32 µM (≈ 12 µg/mL) | 32 µM (≈ 12 µg/mL) | 16 µM (≈ 5.99 µg/mL) | 32 µM (≈ 12 µg/mL) | 8 µM (≈ 2.99 µg/mL) | 32 µM (≈ 12 µg/mL) | 8 µM (≈ 2.99 µg/mL) | 4 µM (≈ 1.5 µg/mL) | 16 µM (≈ 5.99 µg/mL) | 62.5 µM (≈ 23.4 µg/mL)
7 | CCCCCCCCCCCCCCCCn1nnnc1SCn1nnc(-c2cc([N+](=O)[O-])cc([N+](=O)[O-])c2)n1 | 250 µM (≈ 144 µg/mL) | 16 µM (≈ 9.2 µg/mL) | 125 µM (≈ 71.8 µg/mL) | 32 µM (≈ 18.4 µg/mL) | 8 µM (≈ 4.6 µg/mL) | 32 µM (≈ 18.4 µg/mL) | 8 µM (≈ 4.6 µg/mL) | 4 µM (≈ 2.3 µg/mL) | 16 µM (≈ 9.2 µg/mL) | 32 µM (≈ 18.4 µg/mL)
8 | O=[N+]([O-])c1cc(Sc2nnnn2-c2ccccc2)cc([N+](=O)[O-])c1 | 16 µM (≈ 5.51 µg/mL) | 8 µM (≈ 2.75 µg/mL) | 16 µM (≈ 5.51 µg/mL) | 8 µM (≈ 2.75 µg/mL) | 4 µM (≈ 1.38 µg/mL) | 8 µM (≈ 2.75 µg/mL) | 4 µM (≈ 1.38 µg/mL) | 2 µM (≈ 0.689 µg/mL) | 8 µM (≈ 2.75 µg/mL) | 16 µM (≈ 5.51 µg/mL)
9 | COc1ccccc1-n1nnnc1SCn1nnc(-c2cc([N+](=O)[O-])cc([N+](=O)[O-])c2)n1 | 32 µM (≈ 14.6 µg/mL) | 32 µM (≈ 14.6 µg/mL) | 32 µM (≈ 14.6 µg/mL) | 32 µM (≈ 14.6 µg/mL) | 0.25 µM (≈ 0.114 µg/mL) | 32 µM (≈ 14.6 µg/mL) | 32 µM (≈ 14.6 µg/mL) | 0.25 µM (≈ 0.114 µg/mL) | 32 µM (≈ 14.6 µg/mL) | 32 µM (≈ 14.6 µg/mL)
10 | CCCn1nnc(-c2cc([N+](=O)[O-])cc([N+](=O)[O-])c2)n1 | 62.5 µM (≈ 17.4 µg/mL) | 32 µM (≈ 8.9 µg/mL) | 32 µM (≈ 8.9 µg/mL) | 32 µM (≈ 8.9 µg/mL) | 16 µM (≈ 4.45 µg/mL) | 32 µM (≈ 8.9 µg/mL) | 16 µM (≈ 4.45 µg/mL) | 8 µM (≈ 2.23 µg/mL) | 16 µM (≈ 4.45 µg/mL) | 32 µM (≈ 8.9 µg/mL)
11 | O=[N+]([O-])c1cc(-c2nnn(Cc3cc(F)cc(F)c3)n2)cc([N+](=O)[O-])c1 | 16 µM (≈ 5.8 µg/mL) | 2 µM (≈ 0.725 µg/mL) | 8 µM (≈ 2.9 µg/mL) | 2 µM (≈ 0.725 µg/mL) | 5 µM (≈ 1.81 µg/mL) | 4 µM (≈ 1.45 µg/mL) | 1 µM (≈ 0.362 µg/mL) | 0.25 µM (≈ 0.0906 µg/mL) | 1 µM (≈ 0.362 µg/mL) | 4 µM (≈ 1.45 µg/mL)
12 | NNC(=O)c1ccncc1 [ISONIAZID] | – | 4 µM (≈ 0.549 µg/mL) | > 250 µM | > 250 µM | – | 4 µM (≈ 0.549 µg/mL) | 4 µM (≈ 0.549 µg/mL) | – | – | –
13 | O=[N+]([O-])c1cc(-c2nnnn2Cc2ccc(Cl)cc2)cc([N+](=O)[O-])c1 | 16 µM (≈ 5.77 µg/mL) | 8 µM (≈ 2.89 µg/mL) | 16 µM (≈ 5.77 µg/mL) | 16 µM (≈ 5.77 µg/mL) | 4 µM (≈ 1.44 µg/mL) | 8 µM (≈ 2.89 µg/mL) | 4 µM (≈ 1.44 µg/mL) | 4 µM (≈ 1.44 µg/mL) | 8 µM (≈ 2.89 µg/mL) | 16 µM (≈ 5.77 µg/mL)
14 | O=[N+]([O-])c1cc(-c2nnn(CCCCSc3nnnn3-c3ccc(Cl)c(Cl)c3)n2)cc([N+](=O)[O-])c1 | 4 µM (≈ 2.15 µg/mL) | 1 µM (≈ 0.537 µg/mL) | 2 µM (≈ 1.07 µg/mL) | 1 µM (≈ 0.537 µg/mL) | 0.25 µM (≈ 0.134 µg/mL) | 1 µM (≈ 0.537 µg/mL) | 0.5 µM (≈ 0.269 µg/mL) | 0.25 µM (≈ 0.134 µg/mL) | 0.5 µM (≈ 0.269 µg/mL) | 1 µM (≈ 0.537 µg/mL)
15 | O=[N+]([O-])c1cc(-c2nnn(CCSc3nnnn3-c3ccc(Cl)c(Cl)c3)n2)cc([N+](=O)[O-])c1 | 4 µM (≈ 2.04 µg/mL) | 1 µM (≈ 0.509 µg/mL) | 2 µM (≈ 1.02 µg/mL) | 0.5 µM (≈ 0.255 µg/mL) | 0.25 µM (≈ 0.127 µg/mL) | 1 µM (≈ 0.509 µg/mL) | 0.5 µM (≈ 0.255 µg/mL) | 0.25 µM (≈ 0.127 µg/mL) | 0.25 µM (≈ 0.127 µg/mL) | 1 µM (≈ 0.509 µg/mL)
16 | CO[C@H]1/C=C/O[C@@]2(C)Oc3c(C)c(O)c4c(O)c(c(/C=N/N5CCN(C)CC5)c(O)c4c3C2=O)NC(=O)/C(C)=C\C=C\[C@H](C)[C@H](O)[C@@H](C)[C@@H](O)[C@@H](C)[C@H](OC(C)=O)[C@@H]1C [RIFAMPIN] | – | 0.125 µM (≈ 0.103 µg/mL) | 32 µM (≈ 26.3 µg/mL) | 0.25 µM (≈ 0.206 µg/mL) | – | – | – | 0.25 µM (≈ 0.206 µg/mL) | – | –
